Experimental data published in US12077503B2, “Substituted cyclic amides and their use as herbicides” (FMC CORPORATION, priority 2015, dated 2024).

How the values were obtained:
Type in all cases: in vivo
Kochia (Kochia scoparia) [1] = test: Test A preemergence; conditions: Preemergence; for Plant response rating, Kochia: 125 g ai/ha, visual injury after approximately 10 d, 0 to 100 scale where 0 is no effect and 100 is complete control; for Kochia plant response rating (0 to 100 scale, 0 is no effect, 100 is complete control): 500 g ai/ha, visual injury approx. 10 d
How it was run: (§1)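 Visual injury scores from 0, no effect, to 100, complete control, were assigned versus untreated controls roughly 10 d after treatment in the greenhouse. Test chemicals, formulated with surfactant in a non-phytotoxic solvent, were applied to planted seeds as a preemergence soil spray or postemergence to one- to two-leaf plants 2 to 10 cm tall, in loam–sand soil.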

[2] = test system: barnyardgrass (Echinochloa crus-galli); test: Test A preemergence; conditions: Preemergence; for Plant response rating, Barnyardgrass: 125 g ai/ha, visual injury after approximately 10 d, 0 to 100 scale where 0 is no effect and 100 is complete control; for Barnyardgrass plant response rating (0 to 100 scale, 0 is no effect, 100 is complete control): 500 g ai/ha, visual injury approx. 10 d
How it was run: as §1

[3] = test system: giant foxtail (Setaria faberii); test: Test A preemergence; conditions: Preemergence; for Plant response rating, Foxtail, Giant: 125 g ai/ha, visual injury after approximately 10 d, 0 to 100 scale where 0 is no effect and 100 is complete control; for Foxtail, Giant plant response rating (0 to 100 scale, 0 is no effect, 100 is complete control): 500 g ai/ha, visual injury approx. 10 d
How it was run: as §1

[4] = test system: pigweed (Amaranthus retroflexus); test: Test A preemergence; conditions: Preemergence; for Plant response rating, Pigweed: 125 g ai/ha, visual injury after approximately 10 d, 0 to 100 scale where 0 is no effect and 100 is complete control; for Pigweed plant response rating (0 to 100 scale, 0 is no effect, 100 is complete control): 500 g ai/ha, visual injury approx. 10 d
[5] = test system: ragweed (common ragweed, Ambrosia elatior); test: Test A preemergence; conditions: Preemergence; for Plant response rating, Ragweed: 125 g ai/ha, visual injury after approximately 10 d, 0 to 100 scale where 0 is no effect and 100 is complete control; for Ragweed plant response rating (0 to 100 scale, 0 is no effect, 100 is complete control): 500 g ai/ha, visual injury approx. 10 d
How it was run: as §1

[6] = test system: ryegrass, Italian (Italian ryegrass, Lolium multiflorum); test: Test A preemergence; conditions: Preemergence; for Plant response rating, Ryegrass, Italian: 125 g ai/ha, visual injury after approximately 10 d, 0 to 100 scale where 0 is no effect and 100 is complete control; for Ryegrass, Italian plant response rating (0 to 100 scale, 0 is no effect, 100 is complete control): 500 g ai/ha, visual injury approx. 10 d
How it was run: as §1

[7] = test system: Galium (catchweed bedstraw, Galium aparine); test: Test A postemergence; conditions: for Galium plant response rating: 125 g ai/ha, postemergence, visual injury rating on 0 to 100 scale (0 no effect, 100 complete control), approx. 10 d; for Plant response rating, Galium: Postemergence, 500 g ai/ha, 0 to 100 scale where 0 is no effect and 100 is complete control
How it was run: as §1

Kochia (Kochia scoparia) [8] = test: Test A postemergence; conditions: for Kochia plant response rating: 125 g ai/ha, postemergence, visual injury rating on 0 to 100 scale (0 no effect, 100 complete control), approx. 10 d; for Plant response rating, Kochia: Postemergence, 500 g ai/ha, 0 to 100 scale where 0 is no effect and 100 is complete control
How it was run: as §1

[9] = test system: barnyardgrass (Echinochloa crus-galli); test: Test A postemergence; conditions: for Barnyardgrass plant response rating: 125 g ai/ha, postemergence, visual injury rating on 0 to 100 scale (0 no effect, 100 complete control), approx. 10 d; for Plant response rating, Barnyardgrass: Postemergence, 500 g ai/ha, 0 to 100 scale where 0 is no effect and 100 is complete control
How it was run: as §1

[10] = test system: blackgrass (Alopecurus myosuroides); test: Test A postemergence; conditions: for Blackgrass plant response rating: 125 g ai/ha, postemergence, visual injury rating on 0 to 100 scale (0 no effect, 100 complete control), approx. 10 d; for Plant response rating, Blackgrass: Postemergence, 500 g ai/ha, 0 to 100 scale where 0 is no effect and 100 is complete control
How it was run: as §1

corn (Zea mays) = test: Test A postemergence; conditions: for Corn plant response rating: 125 g ai/ha, postemergence, visual injury rating on 0 to 100 scale (0 no effect, 100 complete control), approx. 10 d; for Plant response rating, Corn: Postemergence, 500 g ai/ha, 0 to 100 scale where 0 is no effect and 100 is complete control
How it was run: as §1

[11] = test system: giant foxtail (Setaria faberii); test: Test A postemergence; conditions: for Foxtail, Giant plant response rating: 125 g ai/ha, postemergence, visual injury rating on 0 to 100 scale (0 no effect, 100 complete control), approx. 10 d; for Plant response rating, Foxtail, Giant: Postemergence, 500 g ai/ha, 0 to 100 scale where 0 is no effect and 100 is complete control
How it was run: as §1

[12] = test system: pigweed (Amaranthus retroflexus); test: Test A postemergence; conditions: for Pigweed plant response rating: 125 g ai/ha, postemergence, visual injury rating on 0 to 100 scale (0 no effect, 100 complete control), approx. 10 d; for Plant response rating, Pigweed: Postemergence, 500 g ai/ha, 0 to 100 scale where 0 is no effect and 100 is complete control
How it was run: as §1

[13] = test system: ragweed (common ragweed, Ambrosia elatior); test: Test A postemergence; conditions: for Ragweed plant response rating: 125 g ai/ha, postemergence, visual injury rating on 0 to 100 scale (0 no effect, 100 complete control), approx. 10 d; for Plant response rating, Ragweed: Postemergence, 500 g ai/ha, 0 to 100 scale where 0 is no effect and 100 is complete control
How it was run: as §1

[14] = test system: ryegrass, Italian (Italian ryegrass, Lolium multiflorum); test: Test A postemergence; conditions: for Ryegrass, Italian plant response rating: 125 g ai/ha, postemergence, visual injury rating on 0 to 100 scale (0 no effect, 100 complete control), approx. 10 d; for Plant response rating, Ryegrass, Italian: Postemergence, 500 g ai/ha, 0 to 100 scale where 0 is no effect and 100 is complete control
How it was run: as §1

[15] = test system: wheat (Triticum aestivum); test: Test A postemergence; conditions: for Wheat plant response rating: 125 g ai/ha, postemergence, visual injury rating on 0 to 100 scale (0 no effect, 100 complete control), approx. 10 d; for Plant response rating, Wheat: Postemergence, 500 g ai/ha, 0 to 100 scale where 0 is no effect and 100 is complete control
How it was run: as §1

[16] = test system: barnyardgrass (Echinochloa crus-galli); test: Test B flooded paddy test; conditions: Flood, 250 g ai/ha; 0 to 100 scale where 0 is no effect and 100 is complete control; 13 to 15 d
How it was run: (§2)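 Response scored visually against untreated controls, 0 = no effect and 100 = complete control, 13–15 d after treatment in the greenhouse. Compounds added to paddy water held 3 cm above soil surface. Treatment given at 2-leaf stage.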

[17] = test system: ducksalad (Heteranthera limosa); test: Test B flooded paddy test; conditions: Flood, 250 g ai/ha; 0 to 100 scale where 0 is no effect and 100 is complete control; 13 to 15 d
How it was run: as §2

rice (Oryra sativa) = test: Test B flooded paddy test; conditions: Flood, 250 g ai/ha; 0 to 100 scale where 0 is no effect and 100 is complete control; 13 to 15 d
How it was run: as §2

[18] = test system: sedge, umbrella (small-flower umbrella sedge, Cyperus difformis); test: Test B flooded paddy test; conditions: Flood, 250 g ai/ha; 0 to 100 scale where 0 is no effect and 100 is complete control; 13 to 15 d
How it was run: as §2

O=C(Nc1ccccc1F)C1C(=O)N(CC=CCl)CC1c1cccc(C(F)(F)F)c1 (stereo not drawn) [Compound 483]
Plant response rating, Kochia (Kochia (Kochia scoparia) [1]): 0 | Kochia plant response rating (0 to 100 scale, 0 is no effect, 100 is complete control) (Kochia (Kochia scoparia) [1]): 0 | Plant response rating, Barnyardgrass [2]: 0 | Barnyardgrass plant response rating (0 to 100 scale, 0 is no effect, 100 is complete control) [2]: 70 | Plant response rating, Foxtail, Giant [3]: 70 | Foxtail, Giant plant response rating (0 to 100 scale, 0 is no effect, 100 is complete control) [3]: 90 | Plant response rating, Pigweed [4]: 0 | Pigweed plant response rating (0 to 100 scale, 0 is no effect, 100 is complete control) [4]: 0 | Plant response rating, Ragweed [5]: 0 | Ragweed plant response rating (0 to 100 scale, 0 is no effect, 100 is complete control) [5]: 0 | Plant response rating, Ryegrass, Italian [6]: 0 | Ryegrass, Italian plant response rating (0 to 100 scale, 0 is no effect, 100 is complete control) [6]: 30 | Galium plant response rating [7]: 0 | Plant response rating, Galium [7]: 0 | Kochia plant response rating (Kochia (Kochia scoparia) [8]): 0 | Plant response rating, Kochia (Kochia (Kochia scoparia) [8]): 20 | Barnyardgrass plant response rating [9]: 20 | Plant response rating, Barnyardgrass [9]: 60 | Blackgrass plant response rating [10]: 0 | Plant response rating, Blackgrass [10]: 0 | Corn plant response rating (corn (Zea mays)): 0 | Plant response rating, Corn (corn (Zea mays)): 0 | Foxtail, Giant plant response rating [11]: 20 | Plant response rating, Foxtail, Giant [11]: 70 | Pigweed plant response rating [12]: 0 | Plant response rating, Pigweed [12]: 0 | Ragweed plant response rating [13]: 0 | Plant response rating, Ragweed [13]: 0 | Ryegrass, Italian plant response rating [14]: 0 | Plant response rating, Ryegrass, Italian [14]: 0 | Wheat plant response rating [15]: 0 | Plant response rating, Wheat [15]: 0 | Plant response rating, Barnyardgrass [16]: 0 | Plant response rating, Ducksalad [17]: 30 | Plant response rating, Rice (rice (Oryra sativa)): 0 | Plant response rating, Sedge, Umbrella [18]: 0

O=C(Nc1ccccc1F)C1C(=O)N(CC=CBr)CC1c1cccc(C(F)(F)F)c1 (stereo not drawn) [Compound 484]
Plant response rating, Kochia (Kochia (Kochia scoparia) [1]): 0 | Kochia plant response rating (0 to 100 scale, 0 is no effect, 100 is complete control) (Kochia (Kochia scoparia) [1]): 0 | Plant response rating, Barnyardgrass [2]: 0 | Barnyardgrass plant response rating (0 to 100 scale, 0 is no effect, 100 is complete control) [2]: 40 | Plant response rating, Foxtail, Giant [3]: 50 | Foxtail, Giant plant response rating (0 to 100 scale, 0 is no effect, 100 is complete control) [3]: 90 | Plant response rating, Pigweed [4]: 0 | Pigweed plant response rating (0 to 100 scale, 0 is no effect, 100 is complete control) [4]: 0 | Plant response rating, Ragweed [5]: 0 | Ragweed plant response rating (0 to 100 scale, 0 is no effect, 100 is complete control) [5]: 0 | Plant response rating, Ryegrass, Italian [6]: 0 | Ryegrass, Italian plant response rating (0 to 100 scale, 0 is no effect, 100 is complete control) [6]: 0 | Galium plant response rating [7]: 0 | Plant response rating, Galium [7]: 0 | Kochia plant response rating (Kochia (Kochia scoparia) [8]): 0 | Plant response rating, Kochia (Kochia (Kochia scoparia) [8]): 0 | Barnyardgrass plant response rating [9]: 0 | Plant response rating, Barnyardgrass [9]: 50 | Blackgrass plant response rating [10]: 0 | Plant response rating, Blackgrass [10]: 0 | Corn plant response rating (corn (Zea mays)): 0 | Plant response rating, Corn (corn (Zea mays)): 0 | Foxtail, Giant plant response rating [11]: 0 | Plant response rating, Foxtail, Giant [11]: 40 | Pigweed plant response rating [12]: 0 | Plant response rating, Pigweed [12]: 0 | Ragweed plant response rating [13]: 0 | Plant response rating, Ragweed [13]: 0 | Ryegrass, Italian plant response rating [14]: 0 | Plant response rating, Ryegrass, Italian [14]: 0 | Wheat plant response rating [15]: 0 | Plant response rating, Wheat [15]: 0 | Plant response rating, Barnyardgrass [16]: 0 | Plant response rating, Ducksalad [17]: 0 | Plant response rating, Rice (rice (Oryra sativa)): 0 | Plant response rating, Sedge, Umbrella [18]: 0

O=C(Nc1cccc(F)c1F)C1C(=O)N(CC=CBr)CC1c1cccc(C(F)(F)F)c1 (stereo not drawn) [Compound 486]
Plant response rating, Kochia (Kochia (Kochia scoparia) [1]): 0 | Kochia plant response rating (0 to 100 scale, 0 is no effect, 100 is complete control) (Kochia (Kochia scoparia) [1]): 0 | Plant response rating, Barnyardgrass [2]: 30 | Barnyardgrass plant response rating (0 to 100 scale, 0 is no effect, 100 is complete control) [2]: 70 | Plant response rating, Foxtail, Giant [3]: 60 | Foxtail, Giant plant response rating (0 to 100 scale, 0 is no effect, 100 is complete control) [3]: 90 | Plant response rating, Pigweed [4]: 0 | Pigweed plant response rating (0 to 100 scale, 0 is no effect, 100 is complete control) [4]: 20 | Plant response rating, Ragweed [5]: 0 | Ragweed plant response rating (0 to 100 scale, 0 is no effect, 100 is complete control) [5]: 0 | Plant response rating, Ryegrass, Italian [6]: 0 | Ryegrass, Italian plant response rating (0 to 100 scale, 0 is no effect, 100 is complete control) [6]: 20 | Galium plant response rating [7]: 0 | Plant response rating, Galium [7]: 20 | Kochia plant response rating (Kochia (Kochia scoparia) [8]): 0 | Plant response rating, Kochia (Kochia (Kochia scoparia) [8]): 0 | Barnyardgrass plant response rating [9]: 0 | Plant response rating, Barnyardgrass [9]: 40 | Blackgrass plant response rating [10]: 0 | Plant response rating, Blackgrass [10]: 0 | Corn plant response rating (corn (Zea mays)): 0 | Plant response rating, Corn (corn (Zea mays)): 0 | Foxtail, Giant plant response rating [11]: 0 | Plant response rating, Foxtail, Giant [11]: 50 | Pigweed plant response rating [12]: 0 | Plant response rating, Pigweed [12]: 40 | Ragweed plant response rating [13]: 0 | Plant response rating, Ragweed [13]: 0 | Ryegrass, Italian plant response rating [14]: 0 | Plant response rating, Ryegrass, Italian [14]: 0 | Wheat plant response rating [15]: 0 | Plant response rating, Wheat [15]: 0 | Plant response rating, Barnyardgrass [16]: 0 | Plant response rating, Ducksalad [17]: 0 | Plant response rating, Rice (rice (Oryra sativa)): 0 | Plant response rating, Sedge, Umbrella [18]: 0
